What is called melting point is the temperature, or range, at which the solid turns liquid.

The record followed here is a melting point compilation (Tetko et al.; mined from patent text by program, amines drawn as free bases though some values may be those of a salt).

SMILES strings stand for the structures.

With `CCCCc1ncc(C(=O)OCC)c(=O)n1Cc1ccc(-c2ccccc2-c2nnn[nH]2)cc1`, the melting point fell in the range of 168 to 173 °C.
As for `CCN(CC)CCNC(=O)c1cc(I)cc2c(=O)cc[nH]c12`, the figure is 141 to 143 °C.
To `CCC(=O)NCCC1=CCc2cc(F)c(OC)cc21` belongs 140 to 143 °C; to `NC(=O)c1ccccc1Nc1ccncc1`, 206 to 209 °C.
To `NC(=O)c1ccc2nc3sc(-c4ccccc4)cc3c(=O)n2c1` belongs 348 to 352 °C; to `CCCCc1nn2cccc(C(=O)OCC)c2c1C(=O)c1ccc(Br)cc1`, below 50 °C.
`O=C(Nc1ccc(Oc2ccccc2)cc1)N1CCN(c2ncnc3cc(F)c(F)cc23)CC1` yielded a melting point of 177 to 178 °C.
As for `NC(=O)Cc1cccc(OCCN2CCC(Cc3ccccc3)CC2)c1`, the figure is 100 to 101 °C; as for `CC1(C)CC(=O)C(c2c[nH]c3ccccc23)C(=O)C1`, 173 °C; as for `O=C(CCl)NC(C(=O)O)N(C(=O)CCl)c1cscn1` (configuration not stated), 184 to 186 °C.
To `COC(=O)/C(=C/c1cccc(C=O)c1)NC(=O)OCc1ccccc1` belongs 77 to 83 °C; to `Cc1ncc(CO)c(C2NC(C(=O)O)C(C)(C)S2)c1O` (configuration not stated), 201 to 202 °C.
As for `CCc1[nH]nc2c1C(=O)c1c(NC(N)=O)cccc1-2`, the figure is above 250 °C; as for `CCCc1cccc(Cl)c1C(=O)N[C@@H](Cc1ccc(-c2c(C)n(C)c(=O)n(C)c2=O)cc1)C(=O)O`, 205 to 209 °C; as for `O=C(CCn1cnc2c(=O)[nH]cnc21)NC1CCSC1=O` (configuration not stated), 228 to 230 °C.
`COC(=O)c1cccc(CBr)c1[N+](=O)[O-]` came in with a melting point of 91 to 95 °C.
As for `C#CCc1c(C)nc2c(OCc3ccccc3OC)cccn12`, the figure is 134 to 136 °C; as for `O=C1OC(c2ccccc2)C2CCc3cc(O)ccc3N12` (configuration not stated), 216 °C.
As for `CNC(=O)c1c(I)c(C(=O)O)c(I)c(C(=O)NC)c1I`, the figure is above 300 °C.
To `CC(=O)OC1N=C(c2ccccc2Cl)c2nc(Cl)ccc2-n2c1n[nH]c2=O` (configuration not stated) belongs 232 to 236 °C; to `COc1cc(C(C)C)c(NC(=O)CN2CCN(CCSc3nc4cccc(C(F)(F)F)c4o3)CC2)c(C(C)C)c1`, 122 to 123 °C; to `CN(C)[C@H]1CCC[C@H]1C(=O)O` (relative stereo), 82 to 84 °C.
For the compound `Cc1ccc2nc3c(nc2c1)SC(C#N)=C(C#N)S3`, the melting point lay within 213 to 215 °C.
In turn, `CC(=O)Nc1c([N+](=O)[O-])cc(Br)c2c1CCN(C)C2` returned a melting point of 190 to 192 °C.
As to `COCc1cccc2c1OCCC(C(=O)OC)=C2`, the melting point was 76 to 78 °C.
To `CN(C)c1ccc(F)c(C#N)c1` belongs 72 to 72.5 °C; to `CCc1nccn2c(-c3ccnc(NCC(C)(C)O)n3)c(-c3ccc(F)cc3F)nc12`, 164 to 165 °C; to `CCOC(=O)CC(=O)c1cc(F)c(N=[N+]=[N-])nc1Nc1ccc(F)cc1F`, 130 to 131 °C.
To `Cn1cnc(S(=O)(=O)N2CCn3c(c(C(N)=O)c(Cl)c3-c3ccccc3)C2)c1` belongs 260 to 263 °C; to `CCOC(C)Oc1ccc2c(c1C=O)OCO2` (configuration not stated), 48 to 50 °C; to `CN1CCCC(Nc2nc3ccccc3[nH]2)CC1` (configuration not stated), 168 °C.
To `O=C(O)CCC(=O)C(=O)N1CCCC1` belongs 101 to 102 °C; to `O=c1cc(-c2ccsc2)c2ccc(CCl)cc2o1`, 125 to 127 °C.
The compound `O=C1CCCc2ccc([N+](=O)[O-])cc2N1` registered a melting point of 224 to 226 °C.
As for `COC(=O)C(=CC(c1ccccc1)c1ccccc1)C(=O)OC`, the figure is 120 to 122 °C.
`O=S(=O)(Nc1ccc2ccc(OCc3ccc4ccccc4n3)cc2c1)C(F)(F)F` returned a melting point of 172 to 175 °C.
To `CC(=O)OC(c1cc2n(n1)CCOC2=O)C1(Br)C(=O)N2C(C(=O)OCc3ccc([N+](=O)[O-])cc3)=CSC21` (configuration not stated) belongs 107 to 110 °C.
